Legend:
[1] = tested on: A. baumannii ATCC 17978 (SEN) and A. baumannii ATCC BAA-1605 (MDR); experiment: Adaptive laboratory evolution (ALE), relative MIC of evolved lines; assay type: cell-based, Acinetobacter baumannii; conditions: for Relative MIC (log10): AB-SEN (Acinetobacter baumannii ATCC 17978)
Text: Using the same set of bacterial strains, we initiated adaptive laboratory evolution with the aim to maximize the level of antibiotic resistance in the populations achieved during a longer, but fixed time period.
An established protocol for adaptive laboratory evolution[46],[73] was followed to propagate populations with the highest resistance levels. Starting with an antibiotic concentration that caused approximately 50% growth inhibition, ten parallel populations for each antibiotic-ancestor strain combination were grown for 72 hours at 37 °C with continuous shaking (300 RPM). MHB broth medium was used unless stated otherwise. After each incubation, 20 µl of each culture was transferred to four new wells containing fresh medium with increasing antibiotic concentrations (0.5×, 1×, 1.5×, and 2.5× the previous concentration) in a chessboard layout to monitor potential cross-contamination. Growth was monitored by measuring OD600 using a Biotek Synergy 2 microplate reader, and only populations grown in the highest drug concentration with an OD600 > 0.2 were transferred further.
A robotic liquid handling system was used to automatically prepare a 11 to 16-step serial dilution in 384-well microtiter plates (Greiner). A final concentration of 5 × 10^5 bacterial cells per mL were inoculated into each well containing 60 µL MHB medium. Bacterial cultures were incubated at 37 °C with continuous shaking (Infors shaker, 900 rpm with 3 mm throw) for 18 hours (2 replicates from each). Cell growth was monitored by measuring the optical density (OD600 values, using Biotek Synergy microplate reader). MIC was defined as the antibiotic concentration of complete growth inhibition (i.e., OD600 < 0.05). Relative MIC was calculated as follows:1 relativeMIC=MICevolved/MICancestor […]
Supplementary Figure 4. Resistance levels following adaptive laboratory evolution across bacterial strains. The level of resistance was measured as the fold change in relative MIC between evolved and ancestral strains after ~60 days of adaptive laboratory evolution. Data are grouped by bacterial strain (A. baumannii (AB), E. coli (EC), K. pneumoniae (KP), and P. aeruginosa (PA)) and categorized as either multidrug-resistant (MDR) or sensitive (SEN). Each data point represents a laboratory evolved line, and boxplots show the median, first and third quartiles, with whiskers indicating the 5th and 95th percentiles.
Statistical analysis was performed using two-sided Dunn’s post-hoc test with Benjamini-Hochberg correction for multiple comparisons (****/ ***/ **/ * indicates p < 0.0001/ 0.001/ 0.01/ 0.05). For detailed information on antibiotic and bacterial species, see Supplementary Table 1. For mode of action groups, refer to Table 1. Source data are provided as a Source Data file.

[2] = tested on: E. coli BW25113: pUCacrAB; experiment: AcrAB-TolC efflux overexpression screen, relative MIC; assay type: cell-based, Escherichia coli; conditions: pUCacrAB vs empty pUC118 control
Description: Fig. 6 The impact of AcrAB-TolC activity on antibiotic susceptibility. E. coli strains with AcrAB-TolC depletion (BW25113-ΔacrB) and overexpression (BW25113: pUCacrAB) were treated with various antibiotics, and the level of resistance was determined as minimum inhibitory concentration (MIC) relative to a wild-type strain, presented on a logarithmic scale (log2). Each bar represents the mean resistance level (susceptibility, i.e., level of resistance < 0; and resistance, i.e., level of resistance > 0) to antibiotics induced by acrAB overexpression (blue bars; E. coli with a multicopy plasmid of the acrAB genes (pUCacrAB)) and acrB deletion (red bars; mutant E. coli with acrB gene deletion (ΔacrB)) compared to the wild-type. Data are presented as mean values of 3 biological replicates ± SD. […] Detailed information on antibiotic and bacterial strain abbreviations is provided in Supplementary Data 1. Source data are provided as a Source Data file. For information on mode of action groups, refer to Table 1.
For the efflux deficiency screen, the ΔacrB mutant of E. coli K12 BW25113[86] and its equivalent wild-type control strain with intact gene were utilized. In contrast, BW25113 carrying a multicopy acrAB plasmid (pUCacrAB)[87] and its control strain harboring an empty pUC118 plasmid were used to overexpress the acrAB efflux system. According to established protocols via P1 transduction, the suitable acrB deletion mutant (ΔacrB BW25113) was created, while the pUCacrAB plasmid was kindly provided by Kunihiko Nishino and Akihito Yamaguchi (Osaka University, Osaka, Japan). In a prior study, both strains were employed. Since the copy number of the plasmid carrying the efflux pump is controlled by native promoters, external induction is unnecessary.
Antibiotic susceptibilities of these strains were evaluated using a modified version of the standard broth dilution method. In 96-well microtiter plates containing fresh MHB medium, or supplemented MS medium in case of SCH79797, ten-step serial dilutions of an antibiotic from a stock solution were made (2 wells per antibiotic concentration per strain). The two wells contained only supplemented media without any antibiotics […]. Strains were incubated overnight at 37 °C with continuous agitation. Additionally, plasmid containing strains were grown in the presence of 100 µg/mL ampicillin. The culture was diluted to yield a cell suspension with 5 ×10^5 cells/mL and then inoculated into the wells of the microtiter plate. To determine the medium’s background OD value, the first column of the 96-well plate contained solely MHB without inoculum. Prior to the measurement, the plates were incubated at 37 °C with continuous shaking at 900 rpm with 3 mm throw. OD600 values were determined in a microplate reader after 18 hours of incubation (Biotek Synergy 2). The minimum inhibitory concentration (MIC) was determined as the lowest concentration of antibiotic at which the OD600 values were less than 0.05 after subtracting the background value. The log2 of the relative MIC was computed using the following equation:2 log2relativeMICpUCacrAB=MICpUCacrAB/MICpUC118 3 log2relativeMICΔacrB=MICΔacrB/MICwt

CN[C@@H]1[C@@H](O[C@H]2O[C@H](CO)[C@@H](N)[C@H](O)[C@H]2O)OC2C[C@@H](N)[C@@H](O[C@H]3[C@H](O)[C@@H](O)[C@H](N)C[C@@H]3N)OC2[C@@H]1O (some centres unmarked) [Apramycin]
Relative MIC ([1]; AB-SEN (ATCC 17978), evolved line 1, MIC of evolved line / MIC of ancestor): 32
Relative MIC ([1]; AB-SEN (ATCC 17978), evolved line 2, MIC of evolved line / MIC of ancestor): 64
Relative MIC ([1]; AB-SEN (ATCC 17978), evolved line 3, MIC of evolved line / MIC of ancestor): 32
Relative MIC ([1]; AB-SEN (ATCC 17978), evolved line 4, MIC of evolved line / MIC of ancestor): 16
Relative MIC ([1]; AB-SEN (ATCC 17978), evolved line 5, MIC of evolved line / MIC of ancestor): 32
Relative MIC ([1]; AB-SEN (ATCC 17978), evolved line 6, MIC of evolved line / MIC of ancestor): 16
Relative MIC ([1]; AB-SEN (ATCC 17978), evolved line 7, MIC of evolved line / MIC of ancestor): 64
Relative MIC ([1]; AB-SEN (ATCC 17978), evolved line 8, MIC of evolved line / MIC of ancestor): 32
Relative MIC ([1]; AB-SEN (ATCC 17978), evolved line 9, MIC of evolved line / MIC of ancestor): 32
Relative MIC ([1]; AB-SEN (ATCC 17978), evolved line 10, MIC of evolved line / MIC of ancestor): 32
Relative MIC (log10) ([1]; evolved line 2 adapted to the named antibiotic): 1.806
Relative MIC (log10) ([1]; evolved line 3 adapted to the named antibiotic): 1.505
Relative MIC (log10) ([1]; evolved line 6 adapted to the named antibiotic): 1.204
Relative MIC (log10) ([1]; evolved line 9 adapted to the named antibiotic): 1.505
Relative MIC (log10) ([1]; evolved line 10 adapted to the named antibiotic): 1.505
Relative MIC ([1]; Acinetobacter baumannii ATCC 17978 (AB-SEN), evolved line 1): 32
Relative MIC ([1]; Acinetobacter baumannii ATCC 17978 (AB-SEN), evolved line 2): 64
Relative MIC ([1]; Acinetobacter baumannii ATCC 17978 (AB-SEN), evolved line 3): 32
Relative MIC ([1]; Acinetobacter baumannii ATCC 17978 (AB-SEN), evolved line 4): 16
Relative MIC ([1]; Acinetobacter baumannii ATCC 17978 (AB-SEN), evolved line 5): 32
Relative MIC ([1]; Acinetobacter baumannii ATCC 17978 (AB-SEN), evolved line 6): 16
Relative MIC ([1]; Acinetobacter baumannii ATCC 17978 (AB-SEN), evolved line 7): 64
Relative MIC ([1]; Acinetobacter baumannii ATCC 17978 (AB-SEN), evolved line 8): 32
Relative MIC ([1]; Acinetobacter baumannii ATCC 17978 (AB-SEN), evolved line 9): 32
Relative MIC ([1]; Acinetobacter baumannii ATCC 17978 (AB-SEN), evolved line 10): 32
Relative MIC (log2) ([2]; replicate 1): 0
Relative MIC (log2) ([2]; replicate 2): 0
Relative MIC (log2) ([2]; replicate 3): 0

C[C@@H]1CN2c3c(cc4c(N5C(=O)OC[C@@H]5C)noc4c3F)CC3(C(=O)NC(=O)NC3=O)[C@H]2[C@H](C)O1 [Zoliflodacin]
Relative MIC (log2) ([2]; replicate 1): 2
Relative MIC (log2) ([2]; replicate 2): 2
Relative MIC (log2) ([2]; replicate 3): 2

POL7306
Relative MIC ([1]; ALE, Acinetobacter baumannii ATCC 17978 (AB-SEN), evolved line 1): 256
Relative MIC ([1]; ALE, Acinetobacter baumannii ATCC 17978 (AB-SEN), evolved line 2): 32
Relative MIC ([1]; ALE, Acinetobacter baumannii ATCC 17978 (AB-SEN), evolved line 3): 16
Relative MIC ([1]; ALE, Acinetobacter baumannii ATCC 17978 (AB-SEN), evolved line 4): 2
Relative MIC ([1]; ALE, Acinetobacter baumannii ATCC 17978 (AB-SEN), evolved line 6): 32
Relative MIC ([1]; ALE, Acinetobacter baumannii ATCC 17978 (AB-SEN), evolved line 7): 2
Relative MIC ([1]; ALE, Acinetobacter baumannii ATCC 17978 (AB-SEN), evolved line 8): 2
Relative MIC ([1]; ALE, Acinetobacter baumannii ATCC 17978 (AB-SEN), evolved line 9): 256
Relative MIC ([1]; ALE, Acinetobacter baumannii ATCC 17978 (AB-SEN), evolved line 10): 32
Relative MIC ([1]; ALE, Acinetobacter baumannii ATCC BAA 1605 (AB-MDR), evolved line 1): 2
Relative MIC ([1]; ALE, Acinetobacter baumannii ATCC BAA 1605 (AB-MDR), evolved line 2): 16
Relative MIC ([1]; ALE, Acinetobacter baumannii ATCC BAA 1605 (AB-MDR), evolved line 3): 16
Relative MIC ([1]; ALE, Acinetobacter baumannii ATCC BAA 1605 (AB-MDR), evolved line 4): 16
Relative MIC ([1]; ALE, Acinetobacter baumannii ATCC BAA 1605 (AB-MDR), evolved line 5): 16
Relative MIC ([1]; ALE, Acinetobacter baumannii ATCC BAA 1605 (AB-MDR), evolved line 6): 2
Relative MIC ([1]; ALE, Acinetobacter baumannii ATCC BAA 1605 (AB-MDR), evolved line 7): 16
Relative MIC ([1]; ALE, Acinetobacter baumannii ATCC BAA 1605 (AB-MDR), evolved line 8): 8
Relative MIC ([1]; ALE, Acinetobacter baumannii ATCC BAA 1605 (AB-MDR), evolved line 9): 32
Relative MIC ([1]; ALE, Acinetobacter baumannii ATCC BAA 1605 (AB-MDR), evolved line 10): 16

polymyxin-B
MIC of evolved line ([1]; AB-MDR ATCC BAA 1605, evolved line 1): 512 µg/mL
MIC of evolved line ([1]; AB-MDR ATCC BAA 1605, evolved line 2): 512 µg/mL
MIC of evolved line ([1]; AB-MDR ATCC BAA 1605, evolved line 3): 256 µg/mL
MIC of evolved line ([1]; AB-MDR ATCC BAA 1605, evolved line 4): 1020 µg/mL
MIC of evolved line ([1]; AB-MDR ATCC BAA 1605, evolved line 5): 1020 µg/mL
MIC of evolved line ([1]; AB-MDR ATCC BAA 1605, evolved line 6): 1020 µg/mL
MIC of evolved line ([1]; AB-MDR ATCC BAA 1605, evolved line 7): 1020 µg/mL
MIC of evolved line ([1]; AB-MDR ATCC BAA 1605, evolved line 8): 1020 µg/mL
MIC of evolved line ([1]; AB-MDR ATCC BAA 1605, evolved line 9): 1020 µg/mL
MIC of evolved line ([1]; AB-MDR ATCC BAA 1605, evolved line 10): 1020 µg/mL
MIC of evolved line ([1]; AB-SEN (A. baumannii ATCC 17978), evolved line 1 of the given antibiotic): 512 µg/mL
MIC of evolved line ([1]; AB-SEN (A. baumannii ATCC 17978), evolved line 2 of the given antibiotic): 512 µg/mL
MIC of evolved line ([1]; AB-SEN (A. baumannii ATCC 17978), evolved line 3 of the given antibiotic): 256 µg/mL
MIC of evolved line ([1]; AB-SEN (A. baumannii ATCC 17978), evolved line 4 of the given antibiotic): 512 µg/mL
MIC of evolved line ([1]; AB-SEN (A. baumannii ATCC 17978), evolved line 5 of the given antibiotic): 512 µg/mL
MIC of evolved line ([1]; AB-SEN (A. baumannii ATCC 17978), evolved line 6 of the given antibiotic): 512 µg/mL
MIC of evolved line ([1]; AB-SEN (A. baumannii ATCC 17978), evolved line 8 of the given antibiotic): 256 µg/mL
MIC of evolved line ([1]; AB-SEN (A. baumannii ATCC 17978), evolved line 9 of the given antibiotic): 256 µg/mL

Source: publication PMC11845477, “Exploring the principles behind antibiotics with limited resistance” (Nature Communications, 2025)
